This is an account of results in patent US20060281763A1, “Carboxamide inhibitors of TGFbeta” (priority 2005, published 2006).

Molecules are shown by their SMILES.

In one assay the target is T1, TGFβ R1 (Homo sapiens, UniProt P36897).
T1 sequence (P36897 34-503): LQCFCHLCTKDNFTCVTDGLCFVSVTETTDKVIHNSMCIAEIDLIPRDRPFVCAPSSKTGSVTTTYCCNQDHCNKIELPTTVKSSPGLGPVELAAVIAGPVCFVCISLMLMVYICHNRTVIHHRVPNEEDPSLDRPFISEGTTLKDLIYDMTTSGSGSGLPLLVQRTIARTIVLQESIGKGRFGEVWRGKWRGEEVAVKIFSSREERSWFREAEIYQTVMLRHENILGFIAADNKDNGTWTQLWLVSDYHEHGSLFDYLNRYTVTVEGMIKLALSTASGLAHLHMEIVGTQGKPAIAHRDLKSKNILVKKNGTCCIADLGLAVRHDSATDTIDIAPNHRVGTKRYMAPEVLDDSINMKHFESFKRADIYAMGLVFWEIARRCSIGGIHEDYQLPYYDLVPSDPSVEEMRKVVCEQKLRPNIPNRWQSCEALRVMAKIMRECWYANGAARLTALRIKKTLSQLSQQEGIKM
In words: TGFβ R1 autophosphorylation protocol (33P-ATP, phosphocellulose filter plate). The following applies: 10 uM ATP, 170 nM TGFβ R1, 20 minutes at room temperature, read-out: IC50 for Kinase Inhibition. Type of assay: biochemical. In outline:
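Incorporation of 33P from γ-33P-ATP (10 uM ATP final) into the kinase itself (170 nM) measured by phosphocellulose capture and scintillation counting. Incubation 20 min at room temperature in 20 mM MOPS pH 7 with […]; final DMSO ≤1%.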
Regarding `COc1cnc(-c2cc(Cl)ccc2F)nc1Nc1ccncc1C(=O)NCCCNCC(F)(F)C(F)(F)F` [Compound 101, 4-[2-(5-Chloro-2-fluoro-phenyl)-5-methoxy-pyrimidin-4-ylamino]-N-[3-(2,2,3,3,3-pentafluoro-propylamino)-propyl]-nicotinamide], the IC50 – broadly, the concentration that inhibits the measured activity by half – was 140 nM.

For the molecule `CN/C(=N\C#N)NCCCNC(=O)c1cnccc1Nc1nc(-c2cc(Cl)ccc2F)ncc1OC` [Compound 41], the IC50 was determined as 50 nM.

In the case of `COc1cnc(-c2cc(Cl)ccc2F)nc1Nc1ccncc1C(=O)NCCCNCCNC(C)C` [Compound 14], the 50% inhibitory concentration (IC50) came out at 120 nM.

`COc1cnc(-c2cc(Cl)ccc2F)nc1Nc1ccncc1C(=O)NCCCNCCOC1O[C@H](CO)[C@@H](O)[C@H](O)[C@H]1O` (stereo partly drawn) [Compound 134, 4-[2-(5-Chloro-2-fluoro-phenyl)-5-methoxy-pyrimidin-4-ylamino]-N-{3-[2-(3,4,5-trihydroxy-6-hydroxymethyl-tetrahydro-pyran-2-yloxy)-ethylamino]-propyl}-nicotinamide]: the IC50 was 12 nM.

For the molecule `COc1cnc(-c2cc(Cl)ccc2F)nc1Nc1ccncc1C(=O)NCCNC(=O)COC1O[C@H](CO)[C@@H](O)[C@H](O)[C@H]1O` (stereo partly drawn) [Compound 145, 4-[2-(5-Chloro-2-fluoro-phenyl)-5-methoxy-pyrimidin-4-ylamino]-N-{2-[2-(3,4,5-trihydroxy-6-hydroxymethyl-tetrahydro-pyran-2-yloxy)-acetylamino]-ethyl)-nicotinamide], the IC50 was 53 nM.

As for `COc1cnc(-c2cc(Cl)ccc2F)nc1Nc1ccncc1C(=O)NCCCNC(=O)Nc1ccccc1` [Compound 65, 4-[2-(5-Chloro-2-fluoro-phenyl)-5-methoxy-pyrimidin-4-ylamino]-N-[3-(3-phenyl-ureido)-propyl]-nicotinamide], the IC50 amounted to 590 nM.

For the molecule `COc1cnc(-c2cc(Cl)ccc2F)nc1Nc1ccncc1C(=O)NCCCNC(=O)Nc1ccc2c(c1)OCO2` [Compound 76, N-[3-(3-Benzo[1,3]dioxol-5-yl-ureido)-propyl]-4-[2-(5-chloro-2-fluoro-phenyl)-5-methoxy-pyrimidin-4-ylamino]-nicotinamide], the IC50 was determined as 320 nM.

As for `CNC(=O)NCCCNC(=O)c1cnccc1Nc1nc(-c2cc(Cl)ccc2F)ncc1OC` [Compound 74, 4-[2-(5-Chloro-2-fluoro-phenyl)-5-methoxy-pyrimidin-4-ylamino]-N-[3-(3-methyl-ureido)-propyl]-nicotinamide], the IC50 stood at 150 nM.

With `COc1cnc(-c2cc(Cl)ccc2F)nc1Nc1ccncc1C(=O)NCCCN1CC[C@@H](F)C1` [Compound 155, 4-[2-(5-Chloro-2-fluoro-phenyl)-5-methoxy-pyrimidin-4-ylamino]-N-[3-(3-fluoro-pyrrolidin-1-yl)-propyl]-nicotinamide], the IC50 stood at 8 nM.

On to `COc1cnc(-c2cc(Cl)ccc2F)nc1Nc1ccncc1C(=O)NCCCN1CC[C@@H](O)C1` [Compound 77, 4-[2-(5-Chloro-2-fluoro-phenyl)-5-methoxy-pyrimidin-4-ylamino]-N-[3-(3-hydroxy-pyrrolidin-1-yl)-propyl]-nicotinamide], for which the IC50 came out at 40 nM.

Turning to `COc1cnc(-c2cc(Cl)ccc2F)nc1Nc1ccncc1C(=O)NCCCN(C(=O)CC1O[C@H](CO)[C@@H](O)[C@H](O)[C@H]1O)C(C)C` (stereo partly drawn) [Compound 149, 4-[2-(5-Chloro-2-fluoro-phenyl)-5-methoxy-pyrimidin-4-ylamino]-N-(3-[isopropyl-[2-(3,4,5-trihydroxy-6-hydroxymethyl-tetrahydro-pyran-2-yl)-acetyl]-amino]-propyl)-nicotinamide], the IC50 came to 47 nM.

`COc1cnc(-c2cc(Cl)ccc2F)nc1Nc1ccncc1C(=O)NC1CC1CO` (stereo not drawn) [Compound 141, 4-[2-(5-Chloro-2-fluoro-phenyl)-5-methoxy-pyrimidin-4-ylamino]-N-(2-hydroxymethyl-cyclopropyl)-nicotinamide]: the IC50 came to 38 nM.

For the molecule `CN(C)c1cnc(-c2cc(Cl)ccc2F)nc1Nc1ccncc1C(=O)NCCNCCO` [Compound 50], the IC50 turned out to be 20 nM.

In the case of `COc1cnc(-c2cc(Cl)ccc2F)nc1Nc1ccncc1C(=O)NCC1CN(Cc2ccccc2)CCO1` (stereo not drawn) [Compound 30, N-(4-Benzyl-morpholin-2-ylmethyl)-4-[2-(5-chloro-2-fluoro-phenyl)-5-methoxy-pyrimidin-4-ylamino)-nicotinamide], the IC50 is 2370 nM.

As for `COc1cnc(-c2cc(Cl)ccc2F)nc1Nc1ccncc1C(=O)NCCCNCCOC1O[C@H](COC(C)=O)[C@@H](OC(C)=O)[C@H](OC(C)=O)[C@H]1OC(C)=O` (stereo in doubt) [Compound 132, Acetic acid 3,4,5-triacetoxy-6-{2-[3-({4-[2-(5-chloro-2-fluoro-phenyl)-5-methoxy-pyrimidin-4-ylamino]-pyridine-3-carbonyl)-amino)-propylamino]-ethoxy}-tetrahydro-pyran-2-ylmethyl ester], the IC50 came out at 32 nM.

Take `COc1cnc(-c2cc(Cl)ccc2F)nc1Nc1ccncc1C(=O)NCCNC(=O)COC1O[C@H](COC(C)=O)[C@@H](OC(C)=O)[C@H](OC(C)=O)[C@H]1OC(C)=O` (stereo partly drawn) [Compound 143, Acetic acid 3,4,5-triacetoxy-6-{[2-({4-[2-(5-chloro-2-fluoro-phenyl)-5-methoxy-pyrimidin-4-ylamino]-pyridine-3-carbonyl}-amino)-ethylcarbamoyl]-methoxy}-tetrahydro-pyran-2-ylmethyl ester]: the IC50 came out at 183 nM.

Turning to `COc1cnc(-c2cc(Cl)ccc2F)nc1Nc1ccncc1C(=O)NCCCN(CCC1O[C@H](CO)[C@@H](O)[C@H](O)[C@@H]1O)C(C)C` (stereo partly drawn) [Compound 153, 4-[2-(5-Chloro-2-fluoro-phenyl)-5-methoxy-pyrimidin-4-ylamino]-N-(3-{isopropyl-[2-(3,4,5-trihydroxy-6-hydroxymethyl-tetrahydro-pyran-2-yl)-ethyl]-amino}-propyl)-nicotinamide], the IC50 stood at 19 nM.

Still in this assay, the particulars now being: 10 uM ATP, 170 nM TGFβ R1, room temperature 20 minutes, read-out: IC50 for Kinase Inhibition.
With `CC(C)c1cnc(-c2cc(Cl)ccc2F)nc1Nc1ccncc1C(=O)N[C@H]1CCC[C@@H]1O` [Compound 247, 4-[2-(5-Chloro-2-fluoro-phenyl)-5-isopropyl-pyrimidin-4-ylamino]-N-(2-hydroxy-cyclopentyl)-nicotinamide], the 50% inhibitory concentration (IC50) stood at 40 nM.

Consider `CC(C)c1cnc(-c2cc(Cl)ccc2F)nc1Nc1ccncc1C(=O)NCCCN1CCC[C@@H]1C(=O)N(C)C` [Compound 181, 4-[2-(5-Chloro-2-fluoro-phenyl)-5-isopropyl-pyrimidin-4-ylamino]-N-[3-(2-dimethylcarbamoyl-pyrrolidin-1-yl)-propyl]-nicotinamide], for which the IC50 was 6 nM.

Turning to `CC(C)c1cnc(-c2cc(Cl)ccc2F)nc1Nc1ccncc1C(=O)N1CCC[C@H](O)C1` [Compound 214, {4-[2-(5-Chloro-2-fluoro-phenyl)-5-isopropyl-pyrimidin-4-ylamino]-pyridin-3-yl}-(3-hydroxy-piperidin-1-yl)-methanone], the concentration for half-maximal inhibition (IC50) worked out at 283 nM.

`CC(C)c1cnc(-c2cc(Cl)ccc2F)nc1Nc1ccncc1C(=O)NC[C@H](C)OC(=O)[C@@H](C)N` [Compound 205, 2-Amino-propionic acid 2-({4-[2-(5-chloro-2-fluoro-phenyl)-5-isopropyl-pyrimidin-4-ylamino]-pyridine-3-carbonyl}-amino)-1-methyl-ethyl ester]: the IC50 is 10 nM.

With `COc1cnc(-c2cc(Cl)ccc2F)nc1Nc1ccncc1C(=O)N1CC[C@@H](F)C1` [Compound 241, {4-[2-(5-Chloro-2-fluoro-phenyl)-5-methoxy-pyrimidin-4-ylamino]-pyridin-3-yl}-(3-fluoro-pyrrolidin-1-yl)-methanone], the half-maximal inhibitory concentration (IC50) amounted to 127 nM.

On to `O=C(c1cnccc1Nc1nc(-c2cc(Cl)ccc2F)ncc1C1CCCC1)N1CCC[C@H](O)C1` [Compound 226, {4-[2-(5-Chloro-2-fluoro-phenyl)-5-cyclopentyl-pyrimidin-4-ylamino]-pyridin-3-yl}-(3-hydroxy-piperidin-1-yl)-methanone], for which the IC50 came out at 2470 nM.

On to `CC(C)c1cnc(-c2cc(Cl)ccc2F)nc1Nc1ccncc1C(=O)NC1CCN(C)CC1` [Compound 178, 4-[2-(5-Chloro-2-fluoro-phenyl)-5-isopropyl-pyrimidin-4-ylamino]-N-(1-methyl-piperidin-4-yl)-nicotinamide], for which the IC50 was determined as 3 nM.

As to `CNC(=O)[C@@H]1CCCN1CCCNC(=O)c1cnccc1Nc1nc(-c2cc(Cl)ccc2F)ncc1C(C)C` [Compound 177, 4-[2-(5-Chloro-2-fluoro-phenyl)-5-isopropyl-pyrimidin-4-ylamino]-N-[3-(2-methylcarbamoyl-pyrrolidin-1-yl)-propyl]-nicotinamide], the half-inhibitory concentration (IC50) was found to be 11 nM.

For the molecule `CC(C)c1cnc(-c2cc(Cl)ccc2F)nc1Nc1ccncc1C(=O)N1CCNCC1` [Compound 232, {4-[2-(5-Chloro-2-fluoro-phenyl)-5-isopropyl-pyrimidin-4-ylamino]-pyridin-3-yl}-piperazin-1-yl-methanone], the IC50 was 990 nM.

`CC(C)c1cnc(-c2cc(Cl)ccc2F)nc1Nc1ccncc1C(=O)N[C@H]1CCC[C@@H]1O` (stereo in doubt) [Compound 235, 4-[2-(5-Chloro-2-fluoro-phenyl)-5-isopropyl-pyrimidin-4-ylamino]-N-(2-hydroxy-cyclopentyl)-nicotinamide]: the IC50 was found to be 40 nM.
